Source: patent EP4810494A1, “HPK1 DEGRADATION AGENT AND USE THEREOF IN FIELD OF MEDICINE” (Haisco Pharmaceutical Group Co., Ltd., priority 2023, dated 2025)
Structures can show the parent of a compound that is named as a salt.

Tests used:
[1] = target: T1, HPK1 protein (Homo sapiens, UniProt Q92918); assay: Detection of HPK1 protein expression level in Jurkat cells (24 h); format: cell-based; settings: 24 hours incubation
T1 construct: host or cells: Jurkat cells
Procedure: Test example 4: Detection of HPK1 protein expression level in Jurkat cells (24 h)
Jurkat cells from ATCC were placed in a RPMI-1640 complete medium (supplemented with 10% FBS and 1% penicillin-streptomycin solution) and cultured at 37°C and 5% CO2. The cells in the logarithmic growth phase were collected, the cell density was adjusted to 5 × 10^5 cells/well with the culture medium, and the cells were added to a 6-well cell culture plate at a volume of 1 mL/well. The compound to be tested was prepared to 2-fold the final concentration, 1 mL of the compounds at different concentrations were added to administration wells, a medium containing 0.2% DMSO was added to control wells, and the plate was incubated at 37°C and 5% CO2 for 24 hours. The cells were collected into a 1.5 mL centrifuge tube, 30 µL of RIPA lysis buffer (containing 1X protease inhibitor cocktail) was added, and the cells were lysed on ice for 15 minutes and centrifuged at 12000 rpm/min at 4°C for 10 minutes. The supernatant was collected and the protein content was determined using the BCA method. The protein sample to be tested was diluted to 0.2 mg/mL, HPK1 was detected using a fully automated protein expression quantitative analyser (ProteinSimple), and the internal reference protein was β-actin (all antibodies were from CST). The software (Compass for SW) of the fully automated protein expression quantitative analyser was used to process the raw data and calculate the peak area after internal reference normalisation and the HPK1 degradation rate relative to the control group. The HPK1 degradation rate was calculated according to formula 4-1, where Aadministration well is the relative peak area of the administration group after internal reference normalisation, and Acontrol well is the relative peak area of the vehicle control group after internal reference normalisation. DC50 values were calculated using a four-parameter non-linear fitting model in Graphpad 8.3.0 software. HPK1_degradation % = 100−(Aadministration well/Acontrol well×100%) [formula] Table 4-1 Degradation activity of test compounds against HPK1 protein in Jurkat cells (24 h)

[2] = Pharmacokinetic test in mice; format: in vivo, ICR mice; settings: mouse, plasma, po, i. g.
Procedure: Test example 6: Pharmacokinetic test in mice
Experimental objective: In this experiment, a single dose of test substances was administered to ICR mice intravenously and intragastrically, the concentrations of the test compounds in plasma of mice were measured, and the pharmacokinetic characteristics and bioavailability of the test compounds in mice were evaluated.
Experimental animals: Male ICR mice, 20-35 g, purchased from Chengdu Dossy Experimental Animals Co., Ltd. (SCXK (CHUAN) 2020-030).
Experimental method: On the day of the experiment, the ICR mice were randomly grouped according to their body weights. The animals were fasted but with water available overnight before the administration, and fed 4 h after the administration.
Sampling: Blood was taken from the orbits of the mice at specified time points, and placed in an EDTAK2 centrifuge tube. Centrifugation was performed at 5000 rpm at 4°C for 10 min, and the plasma was collected.
Time points for plasma collection in G1 and G1-2 groups: 0, 5 min, 15 min, 30 min, 1 h, 2 h, 4 h, 7 h, and 24 h.
Time points for plasma collection in G2 and G2-2 groups: 0, 5 min, 15 min, 30 min, 1 h, 2 h, 4 h, 7 h, and 24 h.
Before analysis and detection, all the samples were stored at -60°C or lower. The samples were analysed quantitatively by LC-MS/MS. Table 6-1 PK data of test compound drug in mice

[3] = target: T2, HPK1 kinase (Homo sapiens, UniProt Q92918); assay: HPK1 kinase assay (Km concentration ATP); format: biochemical; settings: for IC50: ATP at Km concentration (working concentration: 9 µM); for inhibitory activity against HPK1 kinase (in words): Km concentration ATP, conclusion
T2 construct: purchased Carna 07-410
T2 sequence (Q92918 1-346 limits assumed): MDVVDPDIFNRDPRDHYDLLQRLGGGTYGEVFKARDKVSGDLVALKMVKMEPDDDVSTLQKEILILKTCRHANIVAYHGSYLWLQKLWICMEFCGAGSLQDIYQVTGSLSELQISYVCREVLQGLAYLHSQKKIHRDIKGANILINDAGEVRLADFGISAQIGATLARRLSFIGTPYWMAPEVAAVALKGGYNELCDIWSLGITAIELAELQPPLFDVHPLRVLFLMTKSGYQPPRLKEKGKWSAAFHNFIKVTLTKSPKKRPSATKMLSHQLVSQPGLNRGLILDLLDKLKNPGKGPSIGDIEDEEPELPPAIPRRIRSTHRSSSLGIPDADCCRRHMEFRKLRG
Procedure: Test example 3: HPK1 kinase assay (Km concentration ATP)
(§1) The kinase HPK1 (Carna, Cat.No 07-410) was prepared into 2× kinase solution using 1× kinase buffer. The substrate Fluorescein-PKC (Invitrogen, Cat. No. PV3506) and ATP (working concentration: 9 µM) (Sigma, Cat. No. 2383-5G) were prepared into 2× substrate solution using 1×kinase buffer. The detection reagent was diluted to 2-fold the final concentration using an antibody diluent. 100 nL of compounds at different concentrations and 5 µL of kinase solution were added to each well of a 384-well plate, and the mixture was incubated at room temperature for 10 minutes. After the incubation was completed, 5 µL of substrate solution was added to each well, and the resulting mixture was reacted at room temperature for 90 minutes. After the reaction was completed, 10 µL of detection reagent was added to each well to terminate the reaction, and the mixture was incubated at room temperature for 60 minutes. Fluorescence readings were detected using an Envision instrument with excitation at 320 nm and emission at 520 nm and 495 nm. IC50 value was calculated using XLFit excel add-in version 5.4.0.8 software. The calculation formula of the inhibition rate was shown in formula 3-1, where max is the Ratio of the DMSO control, min is the Ratio of the negative control without enzyme, and sample is the Ratio of the compound. Ratio = RFU520nm /RFU495nm [formula] Inhibition% = (max−sample)/(max−min) × 100% [formula] Table 3-1 Inhibitory activity of test compounds against HPK1 kinase

[4] = Pharmacokinetic test in rats; format: in vivo, SD rats; settings: rat, plasma
Procedure: Test example 7: Pharmacokinetic test in rats
Experimental animals: Male SD rats, 180-200 g, purchased from Chengdu Dossy Experimental Animals Co., Ltd. with the laboratory animal production license number of SCXK (CHUAN) 2020-030.
Experimental design: on the day of the experiment, the SD rats were randomly grouped according to their body weights. The animals were fasted but with water available overnight before the administration, and fed 4 h after the administration.
Vehicle for intragastric administration: 5% Solutol+5% TPGS+30% PEG400+60% (20% SBE-β-CD)
Blood was taken from the orbits of the […] at specified time points, and placed in an EDTAK2 centrifuge tube. Centrifugation was performed at 5000 rpm for 10 min, and the plasma was collected.
Blood sampling time points for the intravenous administration group were: 0, 5 min, 15 min, 30 min, 1 h, 2 h, 4 h, 6 h, 8 h and 24 h; blood sampling time points for the intragastric administration group were: 0, 5 min, 15 min, 30 min, 1 h, 2 h, 4 h, 6 h, 8 h and 24 h. Before analysis and detection, all the samples were stored at - 60°C or lower. The samples were analysed quantitatively by LC-MS/MS. Table 7-1 PK data of test compound drug in rats

[5] = target: T2, HPK1 kinase; assay: HPK1 kinase assay (1 mM ATP); format: biochemical
Procedure: Test example 5: HPK1 kinase assay (1 mM ATP)
as §1, with “1 mM)” for “9 µM)”, “5-1, wherein” for “3-1, where”, “5-1” for “3-1”

[6] = tested on: IL-2 secretion by T cells; assay: IL-2 detection assay in cells (ELISA, pan-T cells isolated from PBMCs); format: cell-based; settings: IL-2, CD3 antibody-coated plate, 24 hours; for Maximum activation fold: maximum activation rate/control group
Procedure: 9. IL-2 detection assay in cells
Activating effect of compounds on IL-2 secretion by T cells was evaluated using the ELISA method. Frozen PBMCs were thawed, and pan-T cells were isolated and purified using a T cell sorting kit (Stemcell, 17951). The cells were resuspended in 1640 complete medium and incubated in a 37°C&5%CO2 incubator overnight. A 96-well plate coated with an anti-human CD3 antibody (Thermo, 16-0037-38) at a final concentration of 5 µg/mL was incubated at 37°C for 2 h. The overnight-cultured cells were collected by centrifugation, the supernatant was discarded, and the cells were resuspended in 1640 complete medium, and seeded in the CD3 antibody-coated 96-well plate at a density of 10^5cells/well. The compounds at different concentrations were added, and the mixture was incubated in a 37°C&5%CO2 incubator for 24 hours. After the incubation was completed, the resulting mixture was centrifuged at 1000 rpm for 1 minute to collect the supernatant, and IL-2 was detected according to the ELISA instructions. DMSO without compounds was used as the control group to calculate the activation rate of the compounds, and prism was used to fit the activation curve. Maximum activation fold = maximum activation rate/control group. Table 9-1 Results of IL-2 activation by test compounds

T1 sequence (Q92918 whole entry): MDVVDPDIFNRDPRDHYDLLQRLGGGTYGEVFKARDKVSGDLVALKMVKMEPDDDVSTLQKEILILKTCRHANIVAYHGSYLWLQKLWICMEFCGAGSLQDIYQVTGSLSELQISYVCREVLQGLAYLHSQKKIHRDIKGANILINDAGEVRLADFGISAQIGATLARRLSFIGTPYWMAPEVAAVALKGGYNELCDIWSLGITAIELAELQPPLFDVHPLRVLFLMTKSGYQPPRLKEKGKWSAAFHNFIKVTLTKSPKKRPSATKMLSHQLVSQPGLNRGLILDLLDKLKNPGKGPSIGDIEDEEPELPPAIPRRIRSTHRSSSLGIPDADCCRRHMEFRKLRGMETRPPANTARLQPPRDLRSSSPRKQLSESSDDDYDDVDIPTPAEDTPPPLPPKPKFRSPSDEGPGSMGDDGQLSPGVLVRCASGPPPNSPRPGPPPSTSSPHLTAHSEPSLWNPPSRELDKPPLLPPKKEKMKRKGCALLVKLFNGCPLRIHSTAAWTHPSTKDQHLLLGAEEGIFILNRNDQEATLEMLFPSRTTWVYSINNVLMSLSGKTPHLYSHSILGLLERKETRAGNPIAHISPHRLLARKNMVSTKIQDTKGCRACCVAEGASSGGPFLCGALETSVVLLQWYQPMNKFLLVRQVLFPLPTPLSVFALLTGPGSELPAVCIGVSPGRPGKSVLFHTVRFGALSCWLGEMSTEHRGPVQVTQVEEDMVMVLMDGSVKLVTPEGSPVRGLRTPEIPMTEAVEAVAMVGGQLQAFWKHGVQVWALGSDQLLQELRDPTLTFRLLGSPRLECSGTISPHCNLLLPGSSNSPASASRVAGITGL

Compound | DC50 [1] [nM] | AUC ([2]; 10 mg/kg) [ng·h/mL] | Cmax ([2]; 10 mg/kg) [ng/mL] | half-life ([2]; 10 mg/kg) [h] | IC50 [5] [nM] | Activation fold at 100 nM concentration [6] | Maximum activation fold [6] | further results
O=C1CCC(c2ccc(N3CCN(CC4CCN(c5ccc(Nc6ccc(-c7cnc8cc(F)ccn78)c7c6C(=O)NC7)nc5)CC4)CC3)cc2F)C(=O)N1 (racemic) [Trifluoroacetic acid salt of compound 1] | < 20 | 14700 | 1070 | 6.73 | – | – | – | IC50 [3]: < 10 nM; inhibitory activity against HPK1 kinase (in words) [3]: good inhibitory activity
O=C1CCC(c2cc3c(cc2F)N2CCN(CC4CCN(c5ccc(Nc6ccc(-c7cnc8cc(F)ccn78)c7c6C(=O)NC7)nc5)CC4)C[C@H]2CC3)C(=O)N1 (stereo partly drawn) [Trifluoroacetic acid salt of compound 3] | < 20 | – | – | – | – | – | – | IC50 [3]: < 10 nM; inhibitory activity against HPK1 kinase (in words) [3]: good inhibitory activity
O=C1CCN(c2cc3c(cc2F)N2CCN(C4CC5(CCN(c6ccc(Nc7ccc(-c8cnc9cc(F)ccn89)c8c7C(=O)NC8)nc6)CC5)C4)C[C@H]2CC3)C(=O)N1 [Trifluoroacetic acid salt of compound 19] | < 20 | 50500 | 3700 | 6.68 | < 50 | >10 | >10 | clearance ([4]; IV, 2.5 mg/kg): 11 mL/min/kg; half-life ([4]; IV, 2.5 mg/kg): 7.66 h; AUC ([4]; po, i. g., 10 mg/kg): 5860 ng·h/mL; Cmax ([4]; po, i. g., 10 mg/kg): 465 ng/mL; half-life ([4]; po, i. g., 10 mg/kg): 7.17 h
N#Cc1ccn2c(-c3ccc(Nc4ccc(N5CCC(CN6CCN7c8cc(F)c(N9CCC(=O)NC9=O)cc8CC[C@@H]7C6)CC5)cn4)c4c3CNC4=O)cnc2c1 [Trifluoroacetic acid salt of compound 31] | < 20 | – | – | – | < 50 | >10 | >10 | clearance ([4]; IV, 1 mg/kg): 5.38 mL/min/kg; half-life ([4]; IV, 1 mg/kg): 4.88 h; AUC ([4]; po, i. g., 5 mg/kg): 4390 ng·h/mL; Cmax ([4]; po, i. g., 5 mg/kg): 464 ng/mL; half-life ([4]; po, i. g., 5 mg/kg): 4.48 h; AUC ([2]; 5 mg/kg): 6500 ng·h/mL; Cmax ([2]; 5 mg/kg): 553 ng/mL; half-life ([2]; 5 mg/kg): 3.03 h
Cn1ccc2c(-c3ccc(Nc4ccc(N5CCC(CN6CCN7c8cc(F)c(N9CCC(=O)NC9=O)cc8CC[C@@H]7C6)CC5)cn4)c4c3CNC4=O)ccnc21 [Trifluoroacetic acid salt of compound 32] | < 20 | 15800 | 1250 | 4.37 | < 50 | – | >10 | –
Cn1ccc2c(-c3ccc(Nc4ccc(N5CCC(CN6CCN7c8cc(F)c(N9CCC(=O)NC9=O)cc8CC[C@H]7C6)CC5)cn4)c4c3CNC4=O)ccnc21 [Trifluoroacetic acid salt of compound 35] | < 20 | 37100 | 2650 | 12.1 | < 50 | – | >10 | –
N#Cc1ccn2c(-c3ccc(Nc4ccc(N5CCC(CN6CCN7c8cc(F)c(N9CCC(=O)NC9=O)cc8CC[C@H]7C6)CC5)cn4)c4c3CNC4=O)cnc2c1 [Trifluoroacetic acid salt of compound 39] | < 20 | 25600 | 2070 | 3.75 | < 50 | >10 | >10 | clearance ([4]; IV, 2.5 mg/kg): 6.58 mL/min/kg; half-life ([4]; IV, 2.5 mg/kg): 4.21 h; AUC ([4]; po, i. g., 10 mg/kg): 7260 ng·h/mL; Cmax ([4]; po, i. g., 10 mg/kg): 777 ng/mL; half-life ([4]; po, i. g., 10 mg/kg): 4.55 h
